Measured values taken from paper PMC7867026, “Selina-1,3,7(11)-trien-8-one and Oxidoselina-1,3,7(11)-trien-8-one from Eugenia uniflora Leaf Essential Oil and Their Cytotoxic Effects on Human Cell Lines” (Molecules, 2021).

Assays:
[1] = system: Wistar rat brain homogenate; assay: Inhibition of lipid peroxidation (TBARS, Fe2+-induced oxidation) in rat brain homogenate; format: biochemical; settings: at 40 mg/L
Description: (§1) The free-radical scavenging activity of 1 and 2 in relation to the 2,2-diphenyl-1-picrylhydrazyl (DPPH) radical was measured using the colorimetric method described by Brand-Williams (1995), and the results are expressed in mg of ascorbic acid equivalent per 100 g of material (AAE/100 g). To evaluate the capacity of hydrogen atom transfer (HAT) of the isolated compounds, male Wistar rat brain homogenate was used as substrate for the production of thiobarbituric acid reactive substances (TBARS) produced by Fe^2+-induced oxidation undertaken at 37 °C, following the experimental conditions described elsewhere. The inhibition of lipid peroxidation was expressed as % of inhibition. The animal protocol was approved by the Ethics Committee (UEPG, protocol 47/2017).

[2] = system: IMR90 (human lung fibroblast); assay: MTT cytotoxicity assay, IMR90; format: cell-based; settings: Homo sapiens, IMR-90, IMR90, 48 h; for IC50: 10–500 μM, read-out: IC50 (cell viability); for GI50: read-out: GI50 (antiproliferative effect)
Description: (§2) The in vitro cytotoxic effect of 1 and 2 compounds were analyzed in relation to A549 (lung adenocarcinoma epithelial cells—BCRJ code: 0033), HepG2 (human hepatoma carcinoma cells—BCRJ code: 0291), and IMR90 (human lung fibroblast—BCRJ code: 0118) cell lines using MTT (3-(4,5-dimethylthiazol-2-yl)-2,5-diphenyl tetrazolium bromide) (Sigma-Aldrich, COD—M5655) assay. All cell lines were maintained in Dulbecco’s Modified Eagle’s Medium/Nutrient Mixture F-12 Ham (Sigma-Aldrich, COD—D8900), with added 10% fetal bovine serum (FBS, Gibco, COD—16000044) and 100 IU penicillin/100 µg streptomycin (Sigma-Aldrich, COD—P4333). The cell lines were grown in a humidified incubator at 37 °C containing 5% CO2. Briefly, the cells were seeded into 96-well plates at a density of 1 × 10^4 cells/well (HepG2 and A549), 5 × 10^3 cells/well (IMR90), 100 μL/well, and after 24 h, the cells were treated with 100 μL of serial concentrations (10–500 μM) of compounds 1 and 2 for 48 h. The stock solution of extracts contained 5% of dimethyl sulfoxide (DMSO) at a final concentration of 0.2% in cell medium for all in vitro assays. The IC50, GI50, and LC50 parameters were performed in accordance with the method described by do Carmo (2018), in which IC50 is the concentration of the agent that inhibits growth by 50%, calculated as (T/C) × 100 = 50, where T = number of cells at time t of treatment; C = control cells at time t of treatment; GI50 is the concentration of the agent that inhibits growth by 50% relative to untreated cells, calculated as ((T − T0)/(C − T0)) × 100 = 50, where T and C are the number of treated and control cells, respectively, at time t of treatment, and T > T0 where T0 is the number of cells at time zero; LC50 is the concentration of the agent that results in a net loss of 50% cells relative to the number at the start of treatment, calculated as ((T − T0)/T0) × 100 = −50, where T < T0. The experiments were conducted in quadruplicate on three different days to assure the reproducibility of the generated data.

[3] = MTT cytotoxicity assay, IMR90; format: cell-based, human; settings: human, IMR90 lung fibroblasts, IMR90, 48 h, read-out: LC50 (cell death)
Description: as §2

[4] = DPPH free-radical scavenging assay; format: biochemical; settings: result in words; figure values in mg AAE/100 g not given
Description: as §1

[5] = system: A549 (lung adenocarcinoma epithelial cells); assay: MTT cytotoxicity assay, A549; format: cell-based, human; settings: Homo sapiens, A549, 48 h; for IC50: 10–500 μM, read-out: IC50 (cell viability); for GI50: read-out: GI50 (antiproliferative effect)
Description: as §2

[6] = MTT cytotoxicity assay, A549; format: cell-based, human; settings: human, A549 lung adenocarcinoma epithelial cells, A549, 48 h
Description: as §2

IMR90 normal cells = assay: Intracellular ROS measurement (DCFH-DA fluorescence), IMR90; format: cell-based, human; settings: IMR90, 10, 50 and 100 μM (legend; method says μg/mL), 1 h
Description: (§3) In order to assess the in vitro antioxidant/oxidant potential of 1 and 2, intracellular ROS generation was measured using a fluorescence technique as described by Carmo (2019). Briefly, A549 cancer cells (6 × 10^4/well) and IMR90 normal cells (2 × 10^4/well) were exposed to concentrations of 10, 50, and 100 μg/mL of 1 and 2 compounds, culture medium (negative control), and 15 μmol/L H2O2 (positive control), for 1 h in DCFH-DA solution ([…]), at 37 °C and 5% CO2. Subsequently, cells were washed with PBS and a H2O2 solution (15 μmol/L) added for recording of fluorescence. Intracellular fluorescence intensity of cells was measured at an excitation wavelength of 485 nm and at an emission wavelength of 538 nm. The assays were performed in quadruplicate on three different days.

A549 cancer cells = assay: Intracellular ROS measurement (DCFH-DA fluorescence), A549; format: cell-based, human; settings: A549, 10, 50 and 100 μM (legend; method says μg/mL), 1 h
Description: as §3

[7] = system: HepG2 (human hepatoma carcinoma cells); assay: MTT cytotoxicity assay, HepG2; format: cell-based; settings: Homo sapiens, HepG2, 48 h; for IC50: 10–500 μM, read-out: IC50 (cell viability); for GI50: read-out: GI50 (antiproliferative effect)
Description: as §2

[8] = MTT cytotoxicity assay, HepG2; format: cell-based, human; settings: human, HepG2 hepatoma carcinoma cells, HepG2, 48 h
Description: as §2

SMILES | inhibition of lipoperoxidation in rat brain homogenate [1] | IC50 [2] | GI50 [2] | CC50 at 48 h [3] | free-radical scavenging activity (DPPH assay) [4] | IC50 [5] | GI50 [5] | LC50 (concentration causing 50% cell death) at 48 h [6] | intracellular ROS generation (IMR90 normal cells) | intracellular ROS generation (A549 cancer cells) | IC50 [7] | GI50 [7] | LC50 (concentration causing 50% cell death) at 48 h [8]
CC1=CC=C[C@]2(C)CC(=O)C(=C(C)C)C[C@H]12 (relative stereo) [Compound 1, selina-1,3,7(11)-trien-8-one] | did not show inhibitory activity | > 500 µM | 185 µM | > 500 µM | insignificant free-radical scavenging activity | > 500 µM | 591 µM | > 500 µM | inducing reactive oxygen species (ROS) generation | inducing reactive oxygen species (ROS) generation | > 500 µM | 289 µM | > 500 µM
CC1=COC=C[C@]2(C)CC(=O)C(=C(C)C)C[C@H]12 (relative stereo) [Compound 2, oxidoselina-1,3,7(11)-trien-8-one] | did not show inhibitory activity | > 500 µM | 14.9 µM | > 500 µM | insignificant free-radical scavenging activity | > 500 µM | 359 µM | – | inducing reactive oxygen species (ROS) generation | inducing reactive oxygen species (ROS) generation | 525 µM | 97.5 µM | –
